Measured values as given in PubChem BioAssay AID504393 (Southern Research Specialized Biocontainment Screening …, 2011).
Active and inactive are the calls of the source. The rule behind the calls is not given here.

What follows are molecules tested on MAGI cells cytotoxicity, % cell control, 2% serum (assay: MAGI cell cytotoxicity in HIV-1 antiviral work, dose response, cytotoxicity control for HIV-1 antiviral lead project, MAGI cells, 2% serum, TC50 (AID 504393)).
With COc1ccccc1Cn1c(O)cc2nn(-c3nc4ccccc4s3)c(=O)c-2c1C the TC50 was 45.7 µM.
For Cc1c2c(=O)n(-c3nc4ccccc4s3)nc-2cc(O)n1CCC(C)C, the TC50 was 65.1 µM.
Work on CS(=O)(=O)C1=NSC2=NC(=O)/C(=C\c3cccn3-c3cc(Cl)cc(Cl)c3)C(=N)N21 yielded a TC50 of 36.5 µM.
O=C(O)CCC(C(=O)O)N1C(=O)/C(=C\c2ccco2)SC1=S (centres undefined) was tested, and the TC50 was > 100 µM (inactive).
Cc1c2c(=O)n(-c3nc4ccccc4s3)nc-2cc(O)n1Cc1ccncc1 showed a TC50 of 85.9 µM.
Molecule CCOc1ccc(-n2cccc2/C=C2/C(=N)N3C(=NC2=O)SN=C3S(C)(=O)=O)cc1 has a TC50 of 42.6 µM.
For O=C(O)CCCN1C(=O)/C(=C\c2ccc(-c3cccc(Cl)c3)o2)SC1=S, the TC50 was 40 µM.
CCOC(=O)C1=C(c2ccccc2)N=c2s/c(=C\c3ccc(OCC(=O)O)cc3)c(=O)n2C1c1cccc(OC)c1 (centres undefined) was tested, and the TC50 was 57.5 µM.
Work on COc1ccc(Cn2c(O)cc3nn(-c4nc5ccccc5s4)c(=O)c-3c2C)cc1 yielded a TC50 of 56.3 µM.
In the case of CCc1ccc(-c2ccc(/C=C3\SC(=S)N(CCCC(=O)O)C3=O)o2)cc1, the TC50 is reported as > 100 µM (inactive).
For CCOC(=O)C1=C(C)N=c2sc(=Cc3ccc(OCC(=O)O)cc3)c(=O)n2C1c1ccc(OC)cc1OC (centres undefined), the TC50 was > 100 µM (inactive).
For CCOC(=O)C1=C(C)N=c2s/c(=C\c3ccc(OCC(=O)O)cc3)c(=O)n2C1c1ccc(Cl)cc1 (centres undefined), the TC50 was > 100 µM (inactive).
COc1cccc(-n2cccc2/C=C2/C(=N)N3C(=NC2=O)SN=C3S(C)(=O)=O)c1 showed a TC50 of 57.6 µM.
For COc1ccc(CCn2c(O)cc3nn(-c4nc5ccccc5s4)c(=O)c-3c2C)cc1, the TC50 was > 100 µM (inactive).
For CS(=O)(=O)C1=NSC2=NC(=O)/C(=C\c3cccn3-c3cccc(C(F)(F)F)c3)C(=N)N21, the TC50 was 79.5 µM.
With O=C(O)CCCN1C(=O)/C(=C/c2ccc(-c3cccc(C(F)(F)F)c3)o2)SC1=S the TC50 was > 100 µM (inactive).
Molecule CCc1ccc(-n2cccc2/C=C2/C(=N)N3C(=NC2=O)SN=C3S(C)(=O)=O)cc1 has a TC50 of 49.7 µM.
With CCOC(=O)C1=C(C)N=c2sc(=Cc3ccc(OCC(=O)O)cc3)c(=O)n2C1c1ccccc1 (centres undefined) the TC50 was > 100 µM (inactive).
For CS(=O)(=O)C1=NSC2=NC(=O)/C(=C\c3cccn3-c3ccc(F)cc3)C(=N)N21, the TC50 was > 100 µM (inactive).
O=C(O)c1ccc(C[n+]2c(-c3ccccc3)csc2Nc2ccccc2)cc1 showed a TC50 of 80.6 µM.
For CCOC(=O)C1=C(C)N=c2sc(=Cc3ccc(OCC(=O)O)cc3)c(=O)n2C1c1ccccc1OC (centres undefined), the TC50 was > 100 µM (inactive).
In the case of Cc1c2c(=O)n(-c3nc4ccccc4s3)nc-2cc(O)n1CCc1ccc(O)cc1, the TC50 is reported as 37.6 µM.
Cc1ccc(-c2ccc(/C=C3\SC(=S)N(CCCC(=O)O)C3=O)o2)cc1 was tested, and the TC50 was > 100 µM (inactive).
In the case of Cc1ccc(-n2cccc2/C=C2/C(=N)N3C(=NC2=O)SN=C3S(C)(=O)=O)cc1C, the TC50 is reported as 48.9 µM.
Work on Cc1c2c(=O)n(-c3nc4ccccc4s3)nc-2cc(O)n1Cc1ccc(F)cc1 yielded a TC50 of 70.4 µM.
For CCOC(=O)C1=C(C)N=c2sc(=Cc3ccc(OCC(=O)O)cc3)c(=O)n2C1c1cc(OC)c(OC)c(OC)c1 (centres undefined), the TC50 was > 100 µM (inactive).
With Nc1sc2ccccc2[n+]1Cc1ccc(C(=O)O)cc1 the TC50 was > 100 µM (inactive).
Work on O=C(O)CCCN1C(=O)/C(=C/c2cc3ccccc3o2)SC1=S yielded a TC50 of 83.6 µM.
O=C(O)c1ccc([C@@H]2Nc3ccc(S(=O)(=O)Nc4cccc5ccccc45)cc3[C@@H]3C=CC[C@@H]32)cc1 showed a TC50 of 54.8 µM.
In the case of COc1ccc(-c2ccc(/C=C3\SC(=S)N(CCCC(=O)O)C3=O)o2)cc1, the TC50 is reported as > 100 µM (inactive).
Molecule COc1ccc(-n2cccc2/C=C2/C(=N)N3C(=NC2=O)SN=C3S(C)(=O)=O)cc1Cl has a TC50 of 42.4 µM.
Molecule Cc1c2c(=O)n(-c3nc4ccccc4s3)nc-2cc(O)n1Cc1ccccc1Cl has a TC50 of 82 µM.
O=C(O)CCCN1C(=O)/C(=C/c2ccc(-c3ccc(Cl)c(Cl)c3)o2)SC1=S showed a TC50 of 11.7 µM.
In the case of CCOC(=O)C1=C(C)N=c2s/c(=C\c3ccc(OCC(=O)O)cc3)c(=O)n2C1c1ccc(OC)c(OCC)c1 (centres undefined), the TC50 is reported as > 100 µM (inactive).
CS(=O)(=O)C1=NSC2=NC(=O)/C(=C\c3cccn3-c3cccc(Cl)c3)C(=N)N21 was tested, and the TC50 was > 100 µM (inactive).
Molecule Cc1c2c(=O)n(-c3nc4ccccc4s3)nc-2cc(O)n1Cc1cccnc1 has a TC50 of 99.2 µM.
For CC1=C(C(=O)OC(C)C)C(c2ccc(Cl)cc2)n2c(s/c(=C\c3ccc(OCC(=O)O)cc3)c2=O)=N1 (centres undefined), the TC50 was > 100 µM (inactive).
CS(=O)(=O)C1=NSC2=NC(=O)/C(=C\c3cccn3-c3ccc(Cl)c(Cl)c3)C(=N)N21 was tested, and the TC50 was 56.7 µM.
With COc1cccc(C2C(C(=O)Nc3ccccc3)=C(C)N=c3sc(=Cc4ccc(OCC(=O)O)cc4)c(=O)n32)c1 (centres undefined) the TC50 was > 100 µM (inactive).
